# Data: US20130178413A1, “HCV NS3 PROTEASE INHIBITORS” (priority 2010, published 2013)
# pEC50, pKi: −log10 of the molar value. Where two headings read alike, the source gives them in different places.
# Assays:
# NS3/4A protease gt 1b = NS3/4A protease gt 1b (Hepatitis C virus genotype 1b, UniProt P26663); assay: HCV NS3 protease time-resolved fluorescence (TRF) assay, NS3/4A inhibitory activity (Ki), gt 1b; format: biochemical; settings: genotype 1b NS3/4A; read-out: Enzyme Activity gt 1b Ki
# Experimental: (§1) The HCV NS3 protease inhibitory activity of the present compounds may be tested using assays known in the art. One such assay is HCV NS3 protease time-resolved fluorescence (TRF) assay as described below and in International Patent Application Publication WO2006/102087. Other examples of such assays are described in e.g., International Patent Application Publication WO2005/046712. HCV NS3 protease inhibitors, such as those described herein have a Ki less than 50 μM, such as less than 10 μM, and less than 100 nM. Ki is determined by an NS3 protease assay. The assay is performed in a final volume of 100 μl in assay buffer containing 50 mM HEPES, pH 7.5, 150 mM NaCl, 15% glycerol, 0.15% TRITON X-100, 10 mM DTT, and 0.1% PEG 8000. NS3 protease is pre-incubated with various concentrations of inhibitors in DMSO for 30 minutes. The reaction is initiated by adding the TRF peptide substrate (final concentration 100 nM). NS3 mediated hydrolysis of the substrate is quenched after 1 hour at room temperature with 100 μl of 500 mM MES, pH 5.5. Product fluorescence is detected using either a VICTOR V2 or FUSION fluorophotometer (Perkin Elmer Life and Analytical Sciences) with excitation at 340 nm and emission at 615 nm with a 400 μs delay. Testing concentrations of different enzyme forms are selected to result in a signal to background ratio (S/B) of 10-30. IC50 values are derived using a standard four-parameter fit to the data. Ki values are derived from IC50 values using the following formula,
# (§2) IC50=Ki(1+[S]/KM), Eqn (1),
# (§3) where [S] is the concentration of substrate peptide in the reaction and KM is the Michaelis constant. See P. Gallinari et al., 38 BIOCHEM. 5620-32 (1999); P. Gallinari et al., 72 J. VIROL. 6758-69 (1998); M. Taliani et al., 240 ANAL. BIOCHEM. 60-67 (1996).
# (§4) One such assay is HCV NS3 protease time-resolved fluorescence (TRF) assay as described below and in Mao et al., Anal Biochem. 373:1-8, 2008 and International Patent Application Publication WO 2006/102087. A NS3 protease assay can be performed, for example, in a final volume of 100 μl assay buffer containing 50 mM HEPES, pH 7.5, 150 mM NaCl, 15% glycerol, 0.15% TRITON X-100, 10 mM DTT, and 0.1% PEG 8000. NS3 and NS4A protease is pre-incubated with various concentrations of inhibitors in DMSO for 30 minutes. The reaction is initiated by adding the TRF peptide substrate (final concentration 100 nM). NS3 mediated hydrolysis of the substrate is quenched after 1 hour at room temperature with 100 μl of 500 mM MES, pH 5.5. Product fluorescence is detected using either a VICTOR V2 or FUSION fluorophotometer (Perkin Elmer Life and Analytical Sciences) with excitation at 340 nm and emission at 615 nm with a 400 μs delay. Testing concentrations of different enzyme forms are selected to result in a signal to background ratio (S/B) of 10-30. IC50 values are derived using a standard four-parameter fit to the data. Ki values are derived from IC50 values using the following formula,
# as §3, with “(1996); Mao et al., Analytical Biochemistry 373: 1-8, 2008. Measuring Compound Inhibitory Potency (Replicon EC50 (nM))” for “(1996).”
# [1] = target: NS3/4A protease gt 1b A156V (Hepatitis C virus genotype 1b, UniProt P26663, A1182V); assay: HCV NS3 protease time-resolved fluorescence (TRF) assay, NS3/4A inhibitory activity (Ki), gt 1b A156V mutant; format: biochemical, hepatitis C virus (HCV)
# Experimental: as §1, §2, §3, §4
# as §3, with “(1996); Mao et al., Analytical Biochemistry 373: 1-8, 2008. Measuring Compound Inhibitory Potency (Replicon EC50 (nM))” for “(1996).”
# NS3/4A protease gt 3a = NS3/4A protease gt 3a (Hepatitis C virus genotype 3a, UniProt Q81258); assay: HCV NS3 protease time-resolved fluorescence (TRF) assay, NS3/4A inhibitory activity (Ki), gt 3a; format: biochemical; settings: genotype 3a NS3/4A; read-out: Enzyme Activity gt 3a Ki
# Experimental: as §1, §2, §3, §4
# as §3, with “(1996); Mao et al., Analytical Biochemistry 373: 1-8, 2008. Measuring Compound Inhibitory Potency (Replicon EC50 (nM))” for “(1996).”
# gt 1b Replicon = assay: HCV replicon assay, compound inhibitory potency (Replicon EC50); format: cell-based; settings: Hepatitis C virus, GT1B
# Experimental: Measurement of inhibition by compounds was performed using the HCV replicon system. Several different replicons encoding different HCV genotypes or mutations were used. In addition, potency measurements were made using different formats of the replicon assay, including different ways of measurements and different plating formats. See Jan M. Vrolijk et al., A replicons-based bioassay for the measurement of interferons in patients with chronic hepatitis C, 110 J. VIROLOGICAL METHODS 201 (2003); Steven S. Carroll et al., Inhibition of Hepatitis C Virus RNA Replication by 2′-Modified Nucleoside Analogs, 278(14) J. BIOLOGICAL CHEMISTRY 11979 (2003). However, the underlying principles are common to all of these determinations, and are outlined below.
# Stable neomycin phosphotransferase encoding replicon-harboring cell lines were used, so all cell lines were maintained under G418 selection prior to the assay. In some cases the cell lines encoded a luciferase:Neor fusion and could be assayed either directly by determination of RNA copy number, or indirectly through measurement of the luciferase activity.
# To initiate an assay, replicon cells were plated in the presence of a dilution series of test compound in the absence of G418. Typically, the assays were performed in a 96-well plate format for manual operation, or a 384 well plate in an automated assay. Replicon cells and compound were incubated for 24-48 hours, depending on the assay. At the end of the assay, cells are washed free of media and compound and then lysed. For direct quantitation, RNA levels were measured by ^32P-probe hybridization and protection, or in a TAQMAN based assay and normalized to cellular cyclophilin A RNA levels. In some cases, luciferase activity was measured using a conventional luciferase assay. In all cases EC50 determinations were calculated as a percent of a DMSO control by fitting the data to a four parameter fit function.
# [2] = 10% Fetal Bovine Serum, read-out: gt 1b Replicon EC50 10% FBS
# [3] = 50% Normal Human Serum, read-out: gt 1b Replicon EC50 50% NHS
SMILES,pKi (NS3/4A protease gt 1b),pKi [1],pKi (NS3/4A protease gt 3a),pEC50 (gt 1b Replicon; [2]),pEC50 (gt 1b Replicon; [3])
"C=C[C@@H]1C[C@]1(NC(=O)[C@@H]1C[C@@H]2CN1C(=O)[C@H](C(C)(C)C)NC(=O)O[C@]1(C)C[C@H]1CCCCCc1nc3ccccc3nc1O2)C(=O)NS(=O)(=O)C1CC1 [Example I-8, (1aR,5S,8S,10R,22aR)-5-tert-butyl-N-{(1R,2S)-1-[(cyclopropylsulfonyl)carbamoyl]-2-ethenylcyclopropyl}-1a-methyl-3,6-dioxo-1,1a,3,4,5,6,9,10,18,19, 20,21,22,22a-tetra decahydro-8H-7,10-methanocyclopropa[18, 19][1,10,3,6]dioxatriaza cyclononadecino[11,12-b]quinoxaline-8-carboxamide]",10.70,7.94,9.30,8.70,8.22
"C=C[C@@H]1C[C@]1(NC(=O)[C@@H]1C[C@@H]2CN1C(=O)[C@H](C(C)(C)C)NC(=O)O[C@]1(C)C[C@H]1CCCCCc1nc3ccc(OC)cc3cc1O2)C(=O)NS(=O)(=O)C1CC1 [Example I-10, (1aR,5S,8S,10R,22aR)-5-tert-butyl-N-{(1R,2S)-1-[(cyclopropylsulfonyl)carbamoyl]-2-ethenylcyclopropyl}-14-methoxy-1a-methyl-3,6-dioxo-1,1a,3,4,5,6,9,10,18,19,20,21,22, 22a-tetradecahydro-8H-7,10-methanocyclo propa[18,19][1,10,3,6] dioxadiazacyclonona decino[12,11-b] quinoline-8-carboxamide]",10.70,8.38,9.70,8.40,8.00
"C=C[C@@H]1C[C@]1(NC(=O)[C@@H]1C[C@@H]2CN1C(=O)[C@H](C1CCCC1)NC(=O)O[C@]1(C)C[C@H]1CCC/C=C/c1cccc3c1CN(C3)C(=O)O2)C(=O)NS(=O)(=O)C1CC1 [Example I-12, (1aR,5S,8S,10R,19E,23aR)-5-cyclopentyl-N-{(1R,2S)-1-[(cyclopropylsulfonyl)carbamoyl]-2-ethenylcyclopropyl}-1a-methyl-3,6,12-trioxo-1a,3,4,5,6,9,10, 14,21,22,23,23a-dodecahydro-1H,8H-7,10:13,15-dimethano cyclopropa[n][4,13,2,8, 11]benzodioxatriaza cyclodocosine-8(12H)-carboxamide]",10.70,8.85,7.92,8.30,7.72
"C=C[C@@H]1C[C@]1(NC(=O)[C@@H]1C[C@@H]2CN1C(=O)[C@H](C1CCCC1)NC(=O)O[C@]1(C)C[C@H]1CCCCCc1cccc3c1CN(C3)C(=O)O2)C(=O)NS(=O)(=O)C1CC1 [Example I-13, (1aR,5S,8S,10R,23aR)-5-cyclopentyl-N-{(1R,2S)-1-[(cyclopropylsulfonyl)carbamoyl]-2-ethenylcyclopropyl}-1a-methyl-3,6,12-trioxo-1a,3,4,5,6,9,10, 14,19,20,21,22,23,23a-tetradecahydro-1H,8H-7,10:13,15-dimethano cyclopropa[n][4,13,2,8, 11]benzodioxatriaza cyclodocosine-8(12H)-carboxamide]",10.70,9.40,7.48,8.40,7.80
"C=C[C@@H]1C[C@]1(NC(=O)[C@@H]1C[C@@H]2CN1C(=O)[C@H](C1CCCC1)NC(=O)O[C@]1(C)CCC[C@H]1CCCCCc1c(nc3ccccc3c1O)O2)C(=O)NS(=O)(=O)C1CC1 [Example I-16, (3aR,7S,10S,12R,24aR)-7-cyclopentyl-N-{(1R,2S)-1-[(cyclopropylsulfonyl)carbamoyl]-2-ethenylcyclopropyl}-19-hydroxy-3a-methyl-5,8-dioxo-1,2,3,3a,5,6,7,8,11,12,20,21,22,23,24, 24a-hexadecahydro-10H-9,12-methano cyclopenta[18,19][1,10,3,6]dioxadiazacyclo nonadecino[11,12-b]quinoline-10-carboxamide]",10.70,8.62,8.85,8.05,7.57
"CC[C@@H]1C[C@]1(NC(=O)[C@@H]1C[C@@H]2CN1C(=O)[C@H](C1CCCC1)NC(=O)O[C@]1(C)CCC[C@H]1CCCCCc1c(nc3ccccc3c1O)O2)C(=O)NS(=O)(=O)C1CC1 [Example I-18, (3aR,7S,10S,12R,24aR)-7-cyclopentyl-N-{(1R,2R)-1-[(cyclopropylsulfonyl)carbamoyl]-2-ethylcyclopropyl}-19-hydroxy-3a-methyl-5,8-dioxo-1,2,3,3a,5,6,7,8,11,12,20,21,22,23,24, 24a-hexadecahydro-10H-9,12-methano cyclopenta[18,19][1,10,3,6]dioxadiazacyclo nonadecino[11,12-b]quinoline-10-carboxamide]",10.15,7.37,8.04,7.52,7.46
"C=C[C@@H]1C[C@]1(NC(=O)[C@@H]1C[C@@H]2CN1C(=O)[C@H](C1CCCC1)NC(=O)O[C@]1(C)C[C@H]1CC/C=C/Cn1c(nc3cc(C)ccc3c1=O)O2)C(=O)NS(=O)(=O)C1CC1 [Example I-23, (1aR,5S,8S,10R,20E,23aR)-5-cyclopentyl-N-{(1R,2S)-1-[(cyclopropylsulfonyl)carbamoyl]-2-ethenylcyclopropyl}-1a,14-dimethyl-3,6,17-trioxo-1,1a,3,4,5,6,9,10,19,22,23,23a-dodecahydro-8H,17H-7,10-methano cyclopropa[18,19][1, 10,3,6,12]dioxatriaza cyclononadecino[11,12-b]quinazoline-8-carboxamide]",10.70,8.92,9.00,8.70,8.22
